Reference: publication PMC10251479, “PROTAC-Induced Glycogen Synthase Kinase 3β Degradation as a Potential Therapeutic Strategy for Alzheimer’s Disease” (ACS Chemical Neuroscience, 2023)

What was measured:
SH-SY5Y cells [1] = assay: Neuroprotective effects against CuSO4 in SH-SY5Y cells (MTT); type: cell-based, human; details: 24 h, CuSO4 150 μM
Method: (§1) SH-SY5Y cells were seeded in a 96-well plate at 2 × 10^4 cells/well, incubated for 24 h and then […]
presence of CuSO4 (150 µM) at 37 °C in 5 % CO2. Cells were also treated with compound 1 (1 µM) for 24 h in the presence of lactacystin (5 µM). At the end of the treatment, the cell viability, in terms of mitochondrial metabolic function, was evaluated by the reduction of 3-(4,5-dimethyl-2-thiazolyl)- 2,5-diphenyl-2H-tetrazolium bromide (MTT) to its insoluble formazan. Briefly, the treatment was replaced with MTT in HBSS [0.5 mg/mL] for 2 h at 37°C in 5% CO2. After washing with HBSS, formazan crystals were dissolved in isopropanol. The amount of formazan was measured (570 nm, reference filter 690 nm) using a multilabel plate reader (VICTOR™ X3, PerkinElmer, Waltham, MA, USA).[10] Data are reported as mean ± SEM of three independent experiments. The neurotoxicity was expressed as a percentage of control cells and calculated by the formula: 100 – ((absorbance of treated

SH-SY5Y cells [2] = assay: Cytotoxicity in SH-SY5Y cells (MTT); type: cell-based, human
Method: Human neuronal SH-SY5Y cells (Sigma-Aldrich, St. Louis, MO, USA) were routinely grown in Dulbecco’s modified Eagle’s Medium supplemented with 10% fetal bovine serum, 2 mM l-glutamine, 50 U/mL penicillin, and 50 μg/mL streptomycin at 37 °C in a humidified incubator with […]
Determination of cytotoxicity
as §1
for 24 h at 37°C in 5% CO2. The cell viability, in terms of mitochondrial metabolic function, was evaluated by the reduction of 3-(4,5-dimethyl-2-thiazolyl)-2,5-diphenyl-2H-tetrazolium bromide […]
(MTT) to its insoluble formazan. Briefly, the treatment was replaced with MTT in HBSS [0.5 mg/mL] for 2 h at 37°C in 5% CO2. After washing with HBSS, formazan crystals were dissolved in isopropanol. The amount of formazan was measured (570 nm, reference filter 690 nm) using a multilabel plate reader (VICTOR™ X3, PerkinElmer, Waltham, MA, USA). Data are expressed as mean of three independent experiments. […]

In the case of O=C(Cn1cc(C2=C(c3ccc(Cl)cc3Cl)C(=O)NC2=O)c2ccccc21)NCCCOCCCCOCCCNc1cccc2c1C(=O)N(C1CCC(=O)NC1=O)C2=O (stereo not shown) [Compound 1], the “neurotoxicity induced by CuSO4” value (SH-SY5Y cells [1]; 1 μM, MTT) is reported as “significantly counteracted the neurotoxicity induced by CuSO4”, the “neuroprotective effect against CuSO4 in the presence of lactacystin” value (SH-SY5Y cells [1]; lactacystin 5 μM) is reported as “abolished by lactacystin” and the “concentration at which cytotoxicity was shown” value (SH-SY5Y cells [2]; MTT, 24 h treatment, 1.25–40 μM) is reported as “higher than 20 μM”. For the same compound, the “nontoxic up to (neuronal cells)” value (SH-SY5Y cells [2]; neuronal cells) was “up to 20 μM”.
